According to article PMC9928118, “Funneling modulatory peptide design with generative models: Discovery and characterization of disruptors of calcineurin protein-protein interactions” (PLOS Computational Biology, 2023):
One block for each sequence: values may come before it.

Tested on: GST-tagged Cn
Assay: PEPperPRINT peptide microarray binding assay with GST-tagged Cn
Excerpt: We then estimated in-silico the binding strength of the various peptides to Cn by template-based docking followed by flexible backbone refinement using Modeller and PepCrawler (Figs 4 and S4). In parallel, we performed a medium-throughput qualitative binding assay using a PEPperPRINT peptide microarray to evaluate the direct binding of Cn to selected peptides (Figs 4 and S5, S3 Data).
Fig 4 Medium-throughput filtering by structural modeling and microarray screening. (a) Depiction of the structural modeling protocol: after alignment to the known PxIxIT binding site, an efficient flexible backbone structure refinement algorithm is applied to estimate the docking energy. […] (c) Coefficients of the equivalent single-site model fitted by sparse linear regression, shown in weight logo representation. […] Colors indicate physical property (black = hydrophobic, red = negatively charged, etc.). (d) Per-gene distribution of docking scores across natural fragments (lower is better). […] (e) Overview of the microarray screening. Peptides are printed on the chip (two circles per peptide). After pouring of Cn and subsequent washing, fluorescent-tagged, a Cn-targeting antibody is overlaid and an image is taken. Fluorescent spots indicate strong Cn binders. (f) Scatter plot of the sequence likelihood (normalized by length, higher is better) against fluorescence level (higher is better, see Methods for details of the data analysis).
In parallel, selected peptides were tested for Cn binding on a chip microarray (PEPperPRINT). 786 peptides were printed on the chip and were incubated with GST-tagged Cn overnight at 4°C. Following extensive washing, binding was detected by applying a fluorescently labeled (Alexa-Fluor 647) GST antibody. […] The experiment was repeated five times, and Z-normalized fluorescence levels were determined following post-processing of the raw data (Methods, S5A, S5B and S5C Fig).
The peptide array was prepared as a custom array pepper chip (PEPperPRINT). For binding detection, 1mg/ml GST-tagged Cn was incubated overnight on the microarray at 4°C. Following extensive washing, fluorescently labeled (Alexa-Fluor 647) GST-antibody. […] The experiment was repeated five times. Each scan was analyzed as follows: a grid was overlaid using the border HA markers to determine regions of interest (ROI) for each peptide (two ROIs per peptide) and the logarithm of the average fluorescence intensity was computed for each ROI. […] To remove spatial artifacts, a position-dependent baseline fluorescence was fitted using a second-order polynomial, and subtracted to the fluorescence. Fluorescence levels were next averaged over the two ROI for each peptide and Z-normalized. […] The Z-scores were averaged over the five repetitions to yield one fluorescence score per peptide.

[1] = GST-tagged Cn, max over the spots on the chip (two locations)
[2] = GST-tagged Cn, mean over the spots on the chip (two locations)
[3] = GST-tagged Cn, max over the chip locations
[4] = GST-tagged Cn, mean over the chip locations
[5] = GST-tagged Cn, max over the spots named in Location on chip
[6] = GST-tagged Cn, mean over the spots named in Location on chip
[7] = max over the chip locations listed for the peptide (two spots)
[8] = mean over the chip locations listed for the peptide (two spots)
[9] = GST-tagged Cn, max over the chip spots listed under Location on chip
[10] = GST-tagged Cn, mean over the chip spots listed under Location on chip
[11] = max over the spots listed under Location on chip
[12] = mean over the spots listed under Location on chip

Chip Fluorescence (max) [1]: 1.164
Chip Fluorescence (mean) [2]: 0.5231
Sequence: TDHMNPQITISSKEND [SeqRBM_3457]

Chip Fluorescence (max) [1]: 1.201
Chip Fluorescence (mean) [2]: 0.8541
Sequence: PGLYDNALGMESFTLS [SeqRBMlowT_2805]

Chip Fluorescence (max) [1]: 1.266
Chip Fluorescence (mean) [2]: -0.8575
Sequence: QAIYQDILGIGAFSGS [SeqRBM_285]

Sequence: SHMAPPAINIDFAPSN [SeqCRZ1_Metarhizium_rileyi]
Chip Fluorescence (max) [3]: 0.3108
Chip Fluorescence (mean) [4]: -0.9278

Sequence: TFWTNPQYRVHVCDPD [SeqRBMlowT_293]
Chip Fluorescence (max) [5]: 1.378
Chip Fluorescence (mean) [6]: -0.7162

Chip Fluorescence (max) [3]: -0.355
Chip Fluorescence (mean) [4]: -1.487
Sequence: NFNPNPAVVLKIPQQR [SeqRBM_5953]

Chip Fluorescence (max) [1]: 1.065
Chip Fluorescence (mean) [2]: 0.727
Sequence: TFWTNPQYKVKLEEED [SeqRBMlowT_252]

Chip Fluorescence (max) [1]: 1.153
Chip Fluorescence (mean) [2]: -0.5729
Sequence: SDEAGVRIVITVTEAP [SeqRBMlowT_9535]

Chip Fluorescence (max) [1]: 0.9892
Chip Fluorescence (mean) [2]: -0.732
Sequence: VSTDAPHSTRNDSGGP [SeqRBM_8532]

Chip Fluorescence (max) [7]: 5.558
Chip Fluorescence (mean) [8]: 0.117
Sequence: TFWTNPQFRVTLTEPD [SeqRBMlowT_9005]

Chip Fluorescence (max) [5]: 1.4183
Chip Fluorescence (mean) [6]: 0.4268
Sequence: PQPSVQSAEFMEFVGH [Seqshuffled_8788]

Chip Fluorescence (max) [1]: 1.102
Chip Fluorescence (mean) [2]: 0.1459
Sequence: NVSSSPRVTLKIPQHR [SeqRBM_7185]

Chip Fluorescence (max) [1]: 1.118
Chip Fluorescence (mean) [2]: 0.3431
Sequence: SYLPIIQVRMTDTGEY [SeqRBM_6285]

Chip Fluorescence (max) [5]: 1.684
Chip Fluorescence (mean) [6]: 0.5765
Sequence: SLDEEPGISINEKPVG [Seqshuffled_9948]

Chip Fluorescence (max) [5]: 1.452
Chip Fluorescence (mean) [6]: 1.232
Sequence: AINASPEIVVGYDELP [SeqRBM_6435]

Chip Fluorescence (max) [9]: 0.6682
Chip Fluorescence (mean) [10]: -0.9835
Sequence: NGPSTPTKQGQPMAPS [SeqRBM_8324]

Chip Fluorescence (max) [5]: 1.375
Chip Fluorescence (mean) [6]: 0.2818
Sequence: LNLKIPIVLLNIISAI [SeqRBM_9387]

Chip Fluorescence (max) [1]: 1.26
Chip Fluorescence (mean) [2]: 0.2646
Sequence: LTDAAPEVVVSKPEHN [SeqRBMlowT_7696]

Chip Fluorescence (max) [1]: 1.006
Chip Fluorescence (mean) [2]: -4.049
Sequence: VQLFIHLPSSDDTGSY [SeqRBM_6875]

Chip Fluorescence (max) [3]: 0.09786
Chip Fluorescence (mean) [4]: -0.5761
Sequence: LNLKIPEVRLNIISAL [SeqRBMlowT_1835]

Chip Fluorescence (max) [7]: 3.663
Chip Fluorescence (mean) [8]: 2.123
Sequence: SDSANPEITITPAELP [SeqRBMlowT_1995]

Chip Fluorescence (max) [7]: 4.66
Chip Fluorescence (mean) [8]: 1.641
Sequence: LCWFLDYRVVLPFFAY [Seqshuffled_7970]

Chip Fluorescence (max) [7]: 6.125
Chip Fluorescence (mean) [8]: 1.9169
Sequence: KKMSPPCIVVSPPEED [SeqRBMlowT_306]

Sequence: QHMSVPKIQVTPTEIE [SeqRBM_9954]
Chip Fluorescence (max) [7]: 4.025
Chip Fluorescence (mean) [8]: 2.718

Chip Fluorescence (max) [9]: 0.8955
Chip Fluorescence (mean) [10]: -0.3348
Sequence: HVSSSPDVTLTPTQHR [SeqRBMlowT_4550]

Chip Fluorescence (max) [11]: 2.88
Chip Fluorescence (mean) [12]: 0.5672
Sequence: TFWTNPQFRITLDSPD [SeqRBMlowT_5998]

Chip Fluorescence (max) [1]: 0.9886
Chip Fluorescence (mean) [2]: -0.8988
Sequence: KKMSPPCINIDPAPTN [SeqRBMlowT_1811]

Chip Fluorescence (max) [5]: 1.785
Chip Fluorescence (mean) [6]: -0.4136
Sequence: ATSGTFPQTEGSHKKQ [SeqRBMlowT_5854]

Chip Fluorescence (max) [1]: 1.062
Chip Fluorescence (mean) [2]: -0.1705
Sequence: TFWTNPQFKVKLEEVD [SeqRBMlowT_284]

Chip Fluorescence (max) [5]: 1.659
Chip Fluorescence (mean) [6]: -0.168
Sequence: MLDAIPEVVVSPPEEP [SeqRBM_4087]

Chip Fluorescence (max) [11]: 3.279
Chip Fluorescence (mean) [12]: -0.004599
Sequence: VFAQEDYFLFPVILKE [Seqrandom_9943]

Chip Fluorescence (max) [3]: 0.06895
Chip Fluorescence (mean) [4]: -0.7142
Sequence: HSKSIPKFSFQSPVHH [SeqRBMlowT_1680]

Chip Fluorescence (max) [11]: 3.124
Chip Fluorescence (mean) [12]: 1.438
Sequence: SVWENATVRFNFFPDN [Seqshuffled_9917]
